Several values for one entry are separate records, joined by “and”; a condition that tells them apart may be missing. Equal values may be shown once. Read-outs that look alike come from different tables or passages of the source.
Columns and labels:
mCB1R = conditions: at 1 μM; cited from earlier work
rCB1R = conditions: cited from earlier work
[1] = Photophysical characterization in PBS; type: physicochemical; conditions: PBS pH 7.4
CB2R-HEK293TR = molecular target: T1, CB2R-HEK293TR (Homo sapiens, UniProt P34972); assay: Live cell confocal imaging, CB2R-HEK293TR cells; type: cell-based; conditions: 250 nM probe, induced CB2R expression
T1 construct: expressed in transfected cells; host or cells: HEK293TR (tetracycline-inducible)
T1 sequence (P34972 whole entry): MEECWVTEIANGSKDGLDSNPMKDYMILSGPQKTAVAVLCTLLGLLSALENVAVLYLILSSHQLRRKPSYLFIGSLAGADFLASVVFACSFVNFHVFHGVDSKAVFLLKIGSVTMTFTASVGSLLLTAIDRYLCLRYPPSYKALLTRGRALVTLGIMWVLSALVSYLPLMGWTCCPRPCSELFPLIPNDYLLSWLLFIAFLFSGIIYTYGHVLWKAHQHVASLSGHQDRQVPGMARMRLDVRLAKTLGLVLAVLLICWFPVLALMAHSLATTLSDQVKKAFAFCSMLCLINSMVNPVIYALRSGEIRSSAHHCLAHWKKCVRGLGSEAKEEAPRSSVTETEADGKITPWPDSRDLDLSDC
Method: (§1) Cells were plated onto a 384-well microplate (PhenoPlate, Revvity), at a density of 3500 cells/well (40 μL) with 1 μg/mL tetracycline for receptor-inducible expression and incubated for 48 h. The cell nuclei were stained using 0.9 μM Hoechst 33342 for 1 h incubation. After replacement of medium to serum-free conditions without Phenol red (20 μL), fluorescent probes were added (10 μL) and tested at 250 nM concentration. In case of blocking experiments, nuclei-stained cells were incubated with inhibitors (5 μM) for 30 min under serum-free conditions before probe administration. Confocal live cell imaging was performed using the Opera Phenix High Content Screening System (Revvity) at 22 °C. The probe fluorescence was monitored by kinetic measurements of 10 min with a break for probe administration. The fluorescence of one image per sample was captured using a water immersion objective (63×, NA 1.15, field of view 0.21 × 0.21 mm) at each time point. Probe detection was realized using the appropriate laser for excitation and filter for fluorescence emission. Image acquisition parameters, including laser power, offset, and gain settings, were kept constant.

hCB1R [2] = molecular target: T2, hCB1R (Homo sapiens, UniProt P21554); assay: HTRF cAMP assay, antagonist mode (forskolin with CP55,940)
Target sequence in this assay (P21554 whole entry): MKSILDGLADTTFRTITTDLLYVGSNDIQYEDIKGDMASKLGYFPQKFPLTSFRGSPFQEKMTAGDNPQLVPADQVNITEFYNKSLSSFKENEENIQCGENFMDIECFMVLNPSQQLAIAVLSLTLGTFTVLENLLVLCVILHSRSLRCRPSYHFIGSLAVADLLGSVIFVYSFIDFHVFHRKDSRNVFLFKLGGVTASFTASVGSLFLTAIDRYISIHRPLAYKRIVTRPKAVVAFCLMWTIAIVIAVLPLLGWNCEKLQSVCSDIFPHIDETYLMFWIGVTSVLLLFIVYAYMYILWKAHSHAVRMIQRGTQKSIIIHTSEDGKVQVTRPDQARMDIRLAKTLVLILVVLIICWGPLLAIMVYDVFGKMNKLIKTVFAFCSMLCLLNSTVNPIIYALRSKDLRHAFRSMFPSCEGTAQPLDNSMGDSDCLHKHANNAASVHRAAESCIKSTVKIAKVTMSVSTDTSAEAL
Method: The homogeneous time-resolved fluorescence (HTRF) cAMP assay was conducted following the manufacturer’s protocol for the cAMP-Gs Dynamic kit. […] After 15 min, reactions were stopped by the 1× cAMP-d2 conjugate in lysis buffer (5 μL/well), followed by 1× anti-cAMP cryptate conjugate in lysis buffer (5 μL/well). Following a 1 h incubation at room temperature, the plates were read in a Revvity Envision reader for time-resolved fluorescence resonance energy transfer detection at 620 and 665 nm. The HTRF ratio versus compound concentrations was plotted using Prism 8.1 (GraphPad). HTRF ratio = (signal 665 nm/signal 620 nm) × 10^4.

hCB1R [3] = molecular target: T2, hCB1R; assay: HTRF cAMP assay, agonist / inverse agonist mode; type: cell-based; set-up: expressed in transfected cells; host or cells: CHO
Target sequence in this assay (P21554 whole entry): as above

hCB1R [4] = molecular target: T2, hCB1R; assay: [3H]CP55,940 displacement assay on CHO membranes, CB1R; type: binding; set-up: host or cells: CHO-K1 (CHOK1hCB1_bgal)
Target sequence in this assay (P21554 whole entry): as above

[5] = system: human CB1R on live SNAP-CB1R-HEK293TR cells; type: cell-based
Method: (§2) Human CB1R HEK293TR cells (same transfected cell line as for TR-FRET binding assay was used, see above) were maintained in a humidified environment at 37 °C and 5% CO2 in DMEM with 10% FBS containing blasticidin (5 μg/mL; Invitrogen) and (Zeocin; 20 μg/mL; Invitrogen).
as §1, with “Cells were plated onto a 384-well microplate (PhenoPlate, Revvity), at a density of 3500 cells/well (40 μL) with 1 μg/mL tetracycline for receptor-inducible expression and incubated for 48 h.” left out

[6] = molecular target: T3, human CB1R on live SNAP-CB1R-HEK293TR cells (Homo sapiens, UniProt P21554); type: cell-based; conditions: 250 nM probe
T3 construct: expressed in transfected cells; host or cells: HEK293TR (tetracycline-inducible)
T3 sequence (P21554 91-472): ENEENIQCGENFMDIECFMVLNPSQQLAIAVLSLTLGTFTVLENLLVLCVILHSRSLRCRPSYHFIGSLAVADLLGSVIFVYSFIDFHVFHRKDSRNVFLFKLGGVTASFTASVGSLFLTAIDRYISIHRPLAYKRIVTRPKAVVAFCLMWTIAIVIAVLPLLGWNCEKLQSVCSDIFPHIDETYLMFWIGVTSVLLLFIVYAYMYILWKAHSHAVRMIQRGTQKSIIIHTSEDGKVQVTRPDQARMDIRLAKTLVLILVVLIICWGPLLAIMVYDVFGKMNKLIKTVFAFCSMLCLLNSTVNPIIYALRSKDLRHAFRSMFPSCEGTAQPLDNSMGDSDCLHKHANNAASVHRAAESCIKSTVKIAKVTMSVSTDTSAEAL
Method: as §2
as §1, with “Cells were plated onto a 384-well microplate (PhenoPlate, Revvity), at a density of 3500 cells/well (40 μL) with 1 μg/mL tetracycline for receptor-inducible expression and incubated for 48 h.” left out

hCB1R [7] = molecular target: T2, hCB1R; assay: TR-FRET fluorescent ligand binding (saturation and kinetics), HEK293TR-hCB1R cell membranes; set-up: a truncated CB1R variant, CB1R91-472 was used to facilitate the FRET; expressed in transfected cells; host or cells: HEK293TR (tetracycline-inducible, pcDNA4/TO)
Target sequence in this assay (P21554 91-472): as above

human CB2R = molecular target: T4, human CB2R (Homo sapiens, UniProt P34972); assay: [3H]CP55,940 displacement assay on CHO membranes, CB2R; type: binding
T4 construct: host or cells: CHO-K1 (CHOK1hCB2_bgal)
T4 sequence (P34972 whole entry): as the sequence (P34972 whole entry) above

hCB2R = molecular target: hCB2R; set-up: method as in PMID 29314831; conditions: cited from earlier work
hCB1R [8] = conditions: cited from earlier work
[9] = fluorescent probe, direct association kinetics

In the case of Cc1c(C(=O)NN2CCCCC2)nn(-c2ccc(Cl)cc2Cl)c1-c1ccc(-c2ccc(CCCNC(=O)c3ccc4c(c3)C(=O)OC43c4ccc(N(C)C)cc4Oc4cc(N(C)C)ccc43)cc2)cc1 [Compound T1117], the “Ki(mCB1R): displacement” value (mCB1R) is given as 10% and the Kd (rCB1R) is given as 460 ± 80 nM.
With CCC(CC)(NC(=O)c1cc(-c2cc(C(F)(F)F)ccc2C(F)(F)F)n(C[C@H]2CCCO2)c1C)C(=O)NCCOCCOCCNC(=O)c1ccc2c(c1)C(=O)OC21c2ccc(N(C)C)cc2Oc2cc(N(C)C)ccc21 [Compound 29] the “Abs (absorbance maximum)” value [1] was 555 nm, the “Em (emission maximum)” value [1] was 585 nm and the “QY (quantum yield)” value [1] was 36.60% and 37%. The “Staining of CB2R-HEK293TR cells” value (CB2R-HEK293TR) was “no staining”, the “Antagonist activity (cAMP assay) pEC50 or pIC50 ± SEM” value (hCB1R [2]; antagonist mode, n.a. is no activity) was 5.7 ± 0.16 and the Emax (hCB1R [2]; read-out: Variation of Emax) was -88%. The Emax (hCB1R [3]) was -64%, the “Functional activity at CB1R (in words)” value (hCB1R [3]; CB1R cAMP HTRF assay) was “inverse agonists” and the “Functional activity CB1R (cAMP assay) pEC50 or pIC50 ± SEM” value (hCB1R [3]; inverse agonists, n.a. is no activity) was 6.99 ± 0.09. The IC50 (hCB1R [3]; read-out: Functional activity (cAMP assay) IC50, cells stably expressing hCB1R, HTRF cAMP, inverse agonists, n.a. denotes no activity) was 102 nM, the “hCB1R pKi ± SEM” value (hCB1R [4]; [3H]CP55,940 displacement, CHO membranes) was 5.68 ± 0.29 and the “Ki(CB2R)/Ki(CB1R)” value (hCB1R [4]; radioligand binding Ki ratio) was over 4.8. The Ki (hCB1R [4]; read-out: hCB1R Ki, [3H]CP55,940 displacement, CHO membranes stably expressing human CB1R, means of three experiments) was 2080 nM, the “Staining of uninduced CB1R-HEK293TR cells” value ([5]; 250 nM probe, no CB1R expression) was “no staining” and the “Passive permeation of outer cell membrane” value ([5]; concluded from intracellular staining in live CB1R-HEK293TR cells) was “able to passively permeate the outer cell membrane”. The “Staining of CB1R on induced CB1R-HEK293TR cells” value ([6]; confocal microscopy) was “selectively stain and visualize CB1R”, the “Time to staining of CB1R” value ([6]; induced CB1R-HEK293TR cells) was at most 10 min and the koff (hCB1R [7]; [9]) was 0.00433 s⁻¹. It also gave a kon (hCB1R [7]; [9]) of 13500 M⁻¹ s⁻¹, a residence time (hCB1R [7]; fluorescent probe, read-out: RT (residence time)) of 3.85 min and a Kd (hCB1R [7]; read-out: kinetic KD, fluorescent probe) of 365 nM. For the same compound, the Kd (hCB1R [7]; read-out: saturation binding KD, TR-FRET saturation binding after 60 min) was 335 nM, the “hCB2R % displacement at 10 µM” value (human CB2R; [3H]CP55,940 displacement at 10 µM compound, ± SEM) was 18 ± 5% and the Ki (human CB2R; read-out: hCB2R Ki, [3H]CP55,940 displacement, CHO membranes stably expressing human CB2R, means of three experiments) was over 10000 nM.
For CCCCCCC(C)(C)c1cc(O)c2c(c1)OC(C)(C)[C@@H]1CC=C(CNC(=O)CCCCCNC(=O)c3ccc(-c4c5ccc(=N)c(S(=O)(=O)O)c-5oc5c(S(=O)(=O)O)c(N)ccc45)c(C(=O)O)c3)C[C@@H]21 [HU210-Alexa488], the Ki (hCB2R) is given as 800 ± 200 nM and the Ki (hCB1R [8]) is given as 27 ± 4 nM.

— PMC11284800 (Journal of Medicinal Chemistry, 2024)
